In ChEMBL document CHEMBL4739717, “Methods of treating cartilage disorders through inhibition of clk and dyrk” (2020):

How the values were obtained:
[1] = molecular target: Dual specificity tyrosine-phosphorylation-regulated kinase 1A (Homo sapiens, UniProt Q13627); test: Inhibition of recombinant DYRK1A (unknown origin) using Ser/Thr 18 peptide as substrate incubated for 1 hr in presence of ATP by FRET assay
[2] = Effect on Wnt signaling pathway in human SW480 cells harbouring TCF/LEF luciferase reporter gene and SP5-Luc reporter gene incubated for 36 to 48 hrs by luminescence assay; format: cell-based
[3] = Induction of chondrogenesis in human MSC assessed as maximum activity at 30 nM incubated for 6 days by rhodamine B and Nile red staining based imaging analysis relative to control; format: functional; conditions: BMMSC, 144 h, time 6 day
[4] = Induction of chondrogenesis in human MSC assessed as incubated for 6 days by rhodamine B and Nile red staining based imaging analysis; format: functional; conditions: bmmsc

Row | SMILES | EC50 [1] [nM] | EC50 [2] [nM] | Emax at 0.03 µM [3] [%] | EC50 [4] [nM]
1 | CCNCc1cncc(-c2cc3c(-c4nc5c(-c6ccsc6)nccc5[nH]4)n[nH]c3cn2)c1 | 2 | 59.3 | 67.7 | 30
2 | CC(C)(C)C(=O)Nc1cncc(-c2ccc3[nH]nc(-c4nc5c(-c6ccc(Cl)s6)cncc5[nH]4)c3n2)c1 | 70 | 551 | 84.7 | 10
3 | CS(=O)(=O)NCc1cc(F)cc(-c2nccc3[nH]c(-c4n[nH]c5ccc(-c6cncnc6)cc45)nc23)c1 | 96 | 40.5 | 73.1 | 30
4 | CCCC(=O)Nc1cncc(-c2cnc3[nH]nc(-c4cc5c(-c6ccncc6)ccnc5[nH]4)c3c2)c1 |  | 999 | 50.3 | 30
5 | CN1CCN(c2nccc3[nH]c(-c4n[nH]c5ccc(-c6cncc(N)c6)nc45)nc23)CC1 | 45 | > 10000 | 135 | 100
6 | c1cncc(-c2ccc3[nH]nc(-c4nc5c(-c6cccnc6)cncc5[nH]4)c3n2)c1 | 47 | > 10000 | 83.8 | 30
7 | CN1CCN(c2cncc3[nH]c(-c4n[nH]c5ccc(-c6cncc(N7CCOCC7)c6)cc45)nc23)CC1 | 2 | 83 | 63.8 | 
8 | CC(C)CC(=O)Nc1cncc(-c2ccc3[nH]nc(-c4cc5c(-c6ccncc6)nccc5[nH]4)c3c2)c1 | 25 | > 10000 | 95.5 | 30
9 | CN(C)Cc1cncc(-c2ccc3[nH]nc(-c4cc5cnccc5[nH]4)c3n2)c1 | 13 | 1140 | 119 | 30
10 | CC(C)(C)CC(=O)Nc1cncc(-c2cnc3[nH]nc(-c4cc5c(-c6cccnc6)cncc5[nH]4)c3c2)c1 | 4 | > 10000 | 37.3 | 
11 | CN1CCN(c2nccc3[nH]c(-c4n[nH]c5cnc(-c6cncc(NC(=O)C(C)(C)C)c6)cc45)cc23)CC1 | 3 | 1880 | 88.2 | 10
12 | c1cncc(-c2ccc3[nH]nc(-c4nc5c(-c6cccnc6)nccc5[nH]4)c3n2)c1 | 36 | > 10000 | 70 | 100
13 | O=C(Nc1cncc(-c2cnc3[nH]nc(-c4cc5c(-c6ccccc6F)nccc5[nH]4)c3c2)c1)C1CC1 | 20 | 321 | 78.1 | 30
14 | FC1(F)CCN(Cc2cncc(-c3ccc4[nH]nc(-c5cc6c(-c7ccccn7)cccc6[nH]5)c4n3)c2)C1 | 33 | 432 | 81.9 | 10
15 | CC(C)CC(=O)Nc1cncc(-c2ccc3[nH]nc(-c4nc5c(-c6cccc(F)c6)ccnc5[nH]4)c3c2)c1 | 43 | 1.4 | 61 | 
16 | CN(C)Cc1cncc(-c2cc3c(-c4cc5c(-c6ccncc6)cncc5[nH]4)n[nH]c3cn2)c1 | 20 | > 10000 | 51.7 | 30
17 | COc1cccc(-c2ccnc3[nH]c(-c4n[nH]c5ccc(-c6cccnc6)nc45)nc23)c1 | 36 | 1610 | 50.5 | 100
18 | FC1(F)CCN(Cc2cncc(-c3cc4c(-c5nc6c(N7CCCCC7)cncc6[nH]5)n[nH]c4cn3)c2)C1 | 6 | 116 | 100 | 10
19 | c1cc2cc(-c3n[nH]c4ccc(-c5cncc(OCCN6CCCC6)c5)cc34)[nH]c2cn1 | 4 | 1850 | 44.6 | 
20 | O=C(Nc1cncc(-c2cc3c(-c4cc5c(-c6ccc(F)cc6)nccc5[nH]4)n[nH]c3cn2)c1)C1CC1 | 74 | 844 | 96.2 | 30
21 | CN(C)Cc1cncc(-c2cnc3[nH]nc(-c4nc5c(-c6cccc(F)c6)cncc5[nH]4)c3c2)c1 | 5 | 13 | 183 | 30
22 | CC(C)CC(=O)Nc1ccncc1NC(=O)c1n[nH]c2ccc(-c3cncc(CN4CCCCC4)c3)cc12 | 59 | 25 | 45.4 | 
23 | Fc1cccc(-c2cncc3[nH]c(-c4n[nH]c5ncc(-c6cncc(CN7CCCCC7)c6)cc45)cc23)c1 | 74 | 3120 | 108 | 10
24 | c1csc(-c2cncc3[nH]c(-c4n[nH]c5ncc(-c6cncc(CNCC7CCCC7)c6)cc45)nc23)c1 | 16 | 98 | 74.6 | 
25 | Nc1cncc(-c2ccc3[nH]nc(-c4cc5cccnc5[nH]4)c3c2)c1 | 2 | 102 | 35.5 | 
26 | O=C(Nc1cncc(-c2cc3c(-c4cc5cccnc5[nH]4)n[nH]c3cn2)c1)C1CC1 | 6 | > 10000 | 17.7 | 
